Laboratory results as given in patent US9040547B2, “Pyrrolopyrimidine and purine derivatives” (PFIZER INC., priority 2011, dated 2015).
Where a name gives a salt, the structure may show the parent alone.

Experiments:
Type in all cases: cell-based
EGFR L858R+T790M = EGFR L858R+T790M (Homo sapiens, UniProt P00533, L858R/T790M); test: pEGFR Y1068 ELISA assay, NIH3T3/EGFR_L858R+T790M cells; settings: 3T3 cell line, 2 hrs compound treatment; read-out: pEGFRY1068 ELISA3T3T790M—L858R IC50;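 also: sandwich ELISA of EGFR phosphorylated at Tyr1068 in lysates of stably transfected NIH/3T3 cells, 11-point threefold dilution series run in duplicate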
Chain of EGFR L858R+T790M (P00533 25-1210 T790M/L858R): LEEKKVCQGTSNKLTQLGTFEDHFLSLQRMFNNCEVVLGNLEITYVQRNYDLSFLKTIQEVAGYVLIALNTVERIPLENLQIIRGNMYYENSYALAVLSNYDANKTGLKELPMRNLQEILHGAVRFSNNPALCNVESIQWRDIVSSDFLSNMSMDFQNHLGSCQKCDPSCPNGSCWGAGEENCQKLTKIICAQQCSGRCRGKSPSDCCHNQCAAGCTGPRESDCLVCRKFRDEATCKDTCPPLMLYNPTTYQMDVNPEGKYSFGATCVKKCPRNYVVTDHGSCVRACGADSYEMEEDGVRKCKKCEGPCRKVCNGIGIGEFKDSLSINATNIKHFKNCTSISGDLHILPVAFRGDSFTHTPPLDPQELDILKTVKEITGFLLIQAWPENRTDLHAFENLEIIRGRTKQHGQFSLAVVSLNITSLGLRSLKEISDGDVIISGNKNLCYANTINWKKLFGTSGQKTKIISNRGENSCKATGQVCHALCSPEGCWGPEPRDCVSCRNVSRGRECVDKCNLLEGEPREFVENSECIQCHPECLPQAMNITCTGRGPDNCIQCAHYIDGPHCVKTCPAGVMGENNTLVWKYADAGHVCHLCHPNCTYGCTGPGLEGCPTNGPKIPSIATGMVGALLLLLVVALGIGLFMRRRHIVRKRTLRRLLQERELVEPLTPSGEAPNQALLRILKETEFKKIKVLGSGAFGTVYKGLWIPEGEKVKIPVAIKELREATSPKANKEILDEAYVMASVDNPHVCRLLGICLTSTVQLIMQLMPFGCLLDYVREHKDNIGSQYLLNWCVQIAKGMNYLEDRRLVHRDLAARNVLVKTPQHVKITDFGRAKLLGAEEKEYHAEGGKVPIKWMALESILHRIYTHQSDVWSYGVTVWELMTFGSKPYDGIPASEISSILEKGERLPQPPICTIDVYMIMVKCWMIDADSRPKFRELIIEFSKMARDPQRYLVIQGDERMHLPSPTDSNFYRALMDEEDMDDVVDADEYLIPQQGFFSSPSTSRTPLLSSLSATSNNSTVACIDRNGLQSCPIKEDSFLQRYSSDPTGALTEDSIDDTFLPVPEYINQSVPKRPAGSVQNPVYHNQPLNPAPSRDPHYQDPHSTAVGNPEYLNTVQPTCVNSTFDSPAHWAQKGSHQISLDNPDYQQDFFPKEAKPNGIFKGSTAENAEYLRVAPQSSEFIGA

NIH3T3/EGFR_L858R = test: Cell proliferation assay (CellTiter-Glo), NIH3T3/EGFR_L858R; settings: Mus musculus, NIH3T3, 120 h, 3T3 cell line, three to five days of compound treatment, read-out: 3T3 L858R IC50
Experimental: (§1) Cell proliferation was measured using the CellTiter-Glo® Luminescent Cell Viability Assay. The assay involves the addition of a single reagent (CellTiter-Glo® Reagent) directly to cells cultured in serum-supplemented medium. The assay uses this one-step addition to induce cell lysis and generate a luminescent signal proportional to the amount of ATP present which is directly proportional to the number of metabolically active cells present in culture. The following cell lines were evaluated in this assay: NIH3T3/EGFR_L858R, NIH3T3/EGFR_E746-A750_deletion, NIH3T3/EGFR L858R+T790M, NIH3T3/EGFR_E746-A750_deletion+T790M, PC-9, PC9-DRH, NCI-H1975, and NCI-H3255. NIH/3T3 parental cells, NCI-H1975, and NCI-H3255 were purchased from the American Type Culture Collection (Manassas, Va.), and PC-9 cells were obtained from Japan. All cells were cultured according to recommendations. NIH/3T3 cells were grown in DMEM (Invitrogen, Carlsbad, Calif.) supplemented with 10% newborn calf serum (Invitrogen), and NIH3T3/EGFR mutant cells were grown in complete media with 5 μg/mL puromycin (Invitrogen). PC-9, NCI-H1975, and NCI-H3255 were grown in RPMI (Invitrogen, Carlsbad, Calif.) supplemented with 10% FBS (Sigma, St Louis, Mo.), and PC9-DRH cells were grown in complete media with 2 uM PF-00299804. Plasmids (pLPCX) with various EGFR constructs were made by GenScript (Piscataway, N.J.), and stable pools of NIH/3T3 cells expressing these constructs were made at Pfizer La Jolla. PC9-DRH cells were generated at Pfizer La Jolla by exposing cells to increasing concentrations of PF-00299804. Cells were plated in complete culture media (3000-5000 cells/well, 50 μl/well) on the bottom of white clear-bottom tissue culture treated microtiter plates (#3610, Corning Inc, Corning, N.Y.) and allowed to adhere overnight at 37° C., 5% CO2. The following day, compound dilution plates were prepared in 96 well clear V-bottom 0.5 mL polypropylene block plates (#3956, Corning, Inc). All cell lines were not evaluated for each compound. Each compound evaluated was prepared as a DMSO stock solution (10 mM). Compounds were tested in duplicate on each plate, with an 11-point serial dilution curve (1:3 dilution). Compound treatment (50 μl) was added from the compound dilution plate to the cell plate. The highest compound concentration was 1 or 10 μM (final), with a 0.3% final DMSO (#D-5879, Sigma, St Louis, Mo.) concentration. Plates were then incubated at 37° C., 5% CO2. After three to five days of compound treatment, CellTiter-Glo® Reagent (#G7573, Promega, Madison, Wis.) was prepared in one of two ways. If thawing a frozen aliquot of CellTiter-Glo® Reagent, the aliquot was thawed and equilibrated to room temperature prior to use while keeping it protected from light. Alternatively, new bottles of CellTiter-Glo® Buffer and CellTiter-Glo® Substrate were thawed and equilibrated to room temperature prior to use. CellTiter-Glo® Buffer (100 mL) was transferred into the amber bottle containing CellTiter-Glo® Substrate to reconstitute the lyophilized enzyme/substrate mixture, forming the CellTiter-Glo® Reagent. The reconstituted reagent was mixed by gently inverting the contents to obtain a homogeneous solution, and went into solution easily in less than one minute. Any unused reconstituted CellTiter-Glo® Reagent was immediately aliquoted and frozen at −20° C., protected from light. Cell plates were equilibrated at room temperature for approximately 30 minutes. An equivolume amount of CellTiter-Glo® Reagent (100 μL) was added to each well. Plates were mixed for two minutes on an orbital shaker to induce cell lysis, and then allowed to incubate at room temperature for 10 minutes to stabilize the luminescent signal. Luminescence was recorded using the PerkinElmer EnVision Excite Multilabel Reader used for endpoint reading for Luminescence detection (Waltham, Mass.). Data were analyzed using a four-parameter fit in Microsoft Excel. […]

[1] = system: NIH3T3/EGFR_E746-A750_deletion; test: Cell proliferation assay (CellTiter-Glo), NIH3T3/EGFR_E746-A750_deletion; settings: Mus musculus, NIH3T3, 120 h, 3T3 cell line, three to five days of compound treatment, read-out: 3T3 del IC50
Experimental: as §1

EGFR L858R = EGFR L858R (Homo sapiens, UniProt P00533, L858R); test: pEGFR Y1068 ELISA assay, NIH3T3/EGFR_L858R cells; settings: 3T3 cell line, 2 hrs compound treatment; read-out: pEGFRY1068 ELISA3T3 L858R IC50;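 also: sandwich ELISA of phospho-EGFR Tyr1068 in lysates of stably transfected NIH/3T3 pools after 2 h compound exposure at 37 °C, 11-point threefold dilution series run in duplicate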
Chain of EGFR L858R (P00533 25-1210 L858R): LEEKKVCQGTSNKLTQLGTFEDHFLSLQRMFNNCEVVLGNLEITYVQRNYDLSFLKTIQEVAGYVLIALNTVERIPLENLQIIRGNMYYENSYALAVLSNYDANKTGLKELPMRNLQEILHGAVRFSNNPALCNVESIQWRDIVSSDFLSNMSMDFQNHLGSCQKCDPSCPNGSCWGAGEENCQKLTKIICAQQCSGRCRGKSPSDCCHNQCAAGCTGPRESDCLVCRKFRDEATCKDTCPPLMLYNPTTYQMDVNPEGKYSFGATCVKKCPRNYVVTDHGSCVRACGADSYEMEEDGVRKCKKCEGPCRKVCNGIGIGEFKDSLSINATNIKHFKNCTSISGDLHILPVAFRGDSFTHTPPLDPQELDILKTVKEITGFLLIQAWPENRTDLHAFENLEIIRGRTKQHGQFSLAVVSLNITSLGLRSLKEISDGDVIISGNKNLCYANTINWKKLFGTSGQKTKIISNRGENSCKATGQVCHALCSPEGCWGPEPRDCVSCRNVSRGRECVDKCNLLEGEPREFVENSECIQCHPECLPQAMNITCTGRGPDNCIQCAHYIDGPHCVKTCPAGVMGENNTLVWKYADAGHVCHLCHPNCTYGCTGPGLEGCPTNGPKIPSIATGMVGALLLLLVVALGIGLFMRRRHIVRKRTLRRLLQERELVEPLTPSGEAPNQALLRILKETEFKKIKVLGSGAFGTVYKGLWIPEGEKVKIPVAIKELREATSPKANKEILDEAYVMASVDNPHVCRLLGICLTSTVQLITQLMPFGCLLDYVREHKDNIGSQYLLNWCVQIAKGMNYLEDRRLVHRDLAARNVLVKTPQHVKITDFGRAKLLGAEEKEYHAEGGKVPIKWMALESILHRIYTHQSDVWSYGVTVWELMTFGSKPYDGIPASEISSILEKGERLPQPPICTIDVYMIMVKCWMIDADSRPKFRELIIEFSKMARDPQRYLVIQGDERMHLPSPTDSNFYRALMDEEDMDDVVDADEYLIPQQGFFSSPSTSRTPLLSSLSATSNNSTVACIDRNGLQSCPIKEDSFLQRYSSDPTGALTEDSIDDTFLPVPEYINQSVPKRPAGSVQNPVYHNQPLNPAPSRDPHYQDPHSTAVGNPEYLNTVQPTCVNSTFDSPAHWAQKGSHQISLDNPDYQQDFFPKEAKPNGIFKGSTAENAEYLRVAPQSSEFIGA

[2] = target: T1, EGFR wildtype, endogenous (Homo sapiens, UniProt P00533); test: pEGFR Y1068 ELISA assay, A549 cells; settings: full serum media, stimulated 10 min with EGF (40 ng/mL), read-out: pEGFRY1068 ELISAA549 IC50;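 also: sandwich ELISA of phospho-EGFR Tyr1068 in cell lysates, cells exposed to compound for 2 h before EGF stimulation, 11-point threefold dilution series run in duplicate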
T1 construct: A549 (EGFR wildtype, endogenous); host or cells: A549
T1 sequence (P00533 25-1210): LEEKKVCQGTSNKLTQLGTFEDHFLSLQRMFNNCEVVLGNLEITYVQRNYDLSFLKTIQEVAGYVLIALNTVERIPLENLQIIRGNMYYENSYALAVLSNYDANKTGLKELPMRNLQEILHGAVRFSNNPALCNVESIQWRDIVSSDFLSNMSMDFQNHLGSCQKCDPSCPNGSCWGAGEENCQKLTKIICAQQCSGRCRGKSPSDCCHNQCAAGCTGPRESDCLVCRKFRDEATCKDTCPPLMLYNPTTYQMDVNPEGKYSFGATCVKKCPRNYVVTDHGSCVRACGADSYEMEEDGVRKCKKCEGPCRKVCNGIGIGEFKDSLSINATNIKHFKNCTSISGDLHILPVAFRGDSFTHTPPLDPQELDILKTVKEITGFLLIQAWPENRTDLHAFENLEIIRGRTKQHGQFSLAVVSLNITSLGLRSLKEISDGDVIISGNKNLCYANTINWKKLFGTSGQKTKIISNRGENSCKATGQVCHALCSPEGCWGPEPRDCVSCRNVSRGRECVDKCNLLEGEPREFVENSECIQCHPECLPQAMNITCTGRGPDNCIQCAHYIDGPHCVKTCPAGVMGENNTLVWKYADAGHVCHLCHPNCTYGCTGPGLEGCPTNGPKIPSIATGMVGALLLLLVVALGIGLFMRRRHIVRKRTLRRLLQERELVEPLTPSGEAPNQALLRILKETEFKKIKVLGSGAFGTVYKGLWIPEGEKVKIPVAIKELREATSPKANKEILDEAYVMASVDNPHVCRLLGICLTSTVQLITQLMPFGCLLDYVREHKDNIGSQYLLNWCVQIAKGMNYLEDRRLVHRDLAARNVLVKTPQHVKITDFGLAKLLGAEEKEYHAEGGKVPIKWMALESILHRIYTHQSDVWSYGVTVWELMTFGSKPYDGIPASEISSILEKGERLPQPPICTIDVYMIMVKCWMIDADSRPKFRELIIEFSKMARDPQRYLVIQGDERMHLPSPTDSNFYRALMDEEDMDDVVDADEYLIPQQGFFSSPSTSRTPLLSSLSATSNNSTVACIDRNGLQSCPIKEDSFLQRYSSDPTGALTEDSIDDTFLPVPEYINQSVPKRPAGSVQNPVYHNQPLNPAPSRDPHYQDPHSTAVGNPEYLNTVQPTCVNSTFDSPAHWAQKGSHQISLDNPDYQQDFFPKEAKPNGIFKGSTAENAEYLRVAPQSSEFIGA

EGFR E746-A750 deletion = EGFR E746-A750 deletion (Homo sapiens, UniProt P00533, DEL746-750); test: pEGFR Y1068 ELISA assay, NIH3T3/EGFR_E746-A750 deletion cells; settings: 3T3 Del cells, 2 hrs compound treatment; read-out: ELISA7E 3T3 Del IC50;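 also: sandwich ELISA on cell lysates detecting phospho-EGFR at Tyr1068, compounds run as 11-point threefold dilution series in duplicate, IC50 from inhibition of this phosphorylation signal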
Chain of EGFR E746-A750 deletion (P00533 with tags, fused parts or gaps DEL746-750): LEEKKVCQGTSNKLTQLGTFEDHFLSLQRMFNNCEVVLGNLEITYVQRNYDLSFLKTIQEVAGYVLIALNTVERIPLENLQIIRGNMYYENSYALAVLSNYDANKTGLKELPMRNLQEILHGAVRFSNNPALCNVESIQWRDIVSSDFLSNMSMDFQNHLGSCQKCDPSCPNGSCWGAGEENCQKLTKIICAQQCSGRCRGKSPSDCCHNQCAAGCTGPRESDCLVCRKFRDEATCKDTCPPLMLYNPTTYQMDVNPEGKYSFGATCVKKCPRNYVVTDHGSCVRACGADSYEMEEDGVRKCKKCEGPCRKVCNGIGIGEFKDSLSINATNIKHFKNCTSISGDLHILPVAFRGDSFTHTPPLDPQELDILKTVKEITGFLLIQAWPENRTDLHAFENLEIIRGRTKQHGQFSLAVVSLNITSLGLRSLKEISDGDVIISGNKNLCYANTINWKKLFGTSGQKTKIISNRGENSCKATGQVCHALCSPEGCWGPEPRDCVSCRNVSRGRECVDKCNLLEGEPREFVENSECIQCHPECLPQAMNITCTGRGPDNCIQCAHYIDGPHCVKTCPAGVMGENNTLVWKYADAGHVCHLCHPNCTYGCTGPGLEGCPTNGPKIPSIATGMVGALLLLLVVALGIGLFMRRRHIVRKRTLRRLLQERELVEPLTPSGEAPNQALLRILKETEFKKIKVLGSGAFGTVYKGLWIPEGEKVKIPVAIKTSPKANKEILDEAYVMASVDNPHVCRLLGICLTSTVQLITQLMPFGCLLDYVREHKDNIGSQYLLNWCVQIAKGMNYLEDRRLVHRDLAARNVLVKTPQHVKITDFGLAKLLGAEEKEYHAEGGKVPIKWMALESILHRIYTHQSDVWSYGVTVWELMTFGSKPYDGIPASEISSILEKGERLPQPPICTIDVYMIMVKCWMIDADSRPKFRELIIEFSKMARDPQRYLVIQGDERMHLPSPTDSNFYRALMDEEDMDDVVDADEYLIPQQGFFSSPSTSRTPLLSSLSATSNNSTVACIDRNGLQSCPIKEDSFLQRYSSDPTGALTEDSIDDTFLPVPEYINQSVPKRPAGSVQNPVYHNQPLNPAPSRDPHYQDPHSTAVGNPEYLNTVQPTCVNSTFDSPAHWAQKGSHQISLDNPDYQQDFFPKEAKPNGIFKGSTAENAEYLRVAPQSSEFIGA

[3] = system: NIH3T3/EGFR_E746-A750_deletion+T790M; test: Cell proliferation assay (CellTiter-Glo), NIH3T3/EGFR_E746-A750_deletion+T790M; settings: Mus musculus, NIH3T3, 120 h, 3T3 cell line, three to five days of compound treatment, read-out: 3T3 del_T790M IC50
Experimental: as §1

NIH3T3/EGFR L858R+T790M = test: Cell proliferation assay (CellTiter-Glo), NIH3T3/EGFR L858R+T790M; settings: Mus musculus, NIH3T3, 120 h, 3T3 cell line, three to five days of compound treatment, read-out: 3T3 L858R_T790M IC50
EGFR Del (PC9) = target: T2, EGFR Del (PC9) (Homo sapiens, UniProt P00533, DEL746-750); test: EGFR ELISA, PC9 Del cells; settings: read-out: EGFR_ELISA9E PC9 Del IC50;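 also: cellular EGFR autophosphorylation at Tyr1068 quantified by sandwich ELISA of cell lysates after 2 h compound exposure at 37 °C, 11-point threefold dilution series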
T2 construct: endogenous in cells; host or cells: PC-9

Row | Compound | IC50 (EGFR L858R+T790M) [nM] | IC50 (NIH3T3/EGFR_L858R) [nM] | IC50 [1] [nM] | IC50 (EGFR L858R) [nM] | IC50 [2] [nM] | IC50 (EGFR E746-A750 deletion) [nM] | IC50 [3] [nM] | IC50 (NIH3T3/EGFR L858R+T790M) [nM] | IC50 (EGFR Del (PC9)) [nM]
1 | C=CC(=O)N1C[C@H](COc2nc(Nc3cnn(C)c3)nc3[nH]cc(Cl)c23)[C@@H]([C@H](C)O)C1 (single isomer, unassigned) [Example 10] | 80 | > 1000 | 100 to 1000 | 1810 | > 10000 | 1020 | 10 to 100 | > 1000 | –
2 | C=CC(=O)Nc1cccc(Oc2nc(Nc3cnn(CCN(C)C)c3)nc3[nH]ccc23)c1 [Example 2, N-(3-{[2-({1-[2-(dimethylamino)ethyl]-1H-pyrazol-4-yl}amino)-7H-pyrrolo[2,3-d]pyrimidin-4-yl]oxy}phenyl)prop-2-enamide] | 11 | 100 to 1000 | < 10 | 141 | 2920 | 29 | < 10 | < 10 | –
3 | C=CC(=O)Nc1cccc(Oc2nc(Nc3cnn(C)c3)nc3[nH]cc(-c4cccnc4)c23)c1 [Example 8, N-[3-({2-[(1-methyl-1H-pyrazol-4-yl)amino]-5-(pyridin-3-yl)-7H-pyrrolo[2,3-d]pyrimidin-4-yl}oxy)phenyl]prop-2-enamide] | 17 | – | – | 25 | 1370 | 8 | – | – | 3
4 | C=CC(=O)N1C[C@H](COc2nc(Nc3cnn(C)c3)nc3[nH]cc(Cl)c23)[C@@H](OC)C1 [Example 9, 1-{(3R,4R)-3-[5-chloro-2-(1-methyl-1H-pyrazol-4-ylamino)-7H-pyrrolo[2,3-d]pyrimidin-4-yloxymethyl]-4-methoxy-pyrrolidin-1-yl}propenone trifluoroacetate] | – | 100 to 1000 | 10 to 100 | – | – | – | < 10 | 100 to 1000 | –
5 | C=CC(=O)Nc1cccc(Oc2nc(Nc3ccn(C)n3)nc3[nH]cc(Cl)c23)c1 [Example 21] | 13 | > 1000 | 10 to 100 | 202 | 7850 | 33 | < 10 | 10 to 100 | –
6 | C=CC(=O)Nc1cccc(Oc2nc(Nc3cnn(C(C)C)c3)nc3[nH]ccc23)c1 [Example 31] | 11 | > 1000 | 10 to 100 | 105 | 947 | – | 10 to 100 | 10 to 100 | –
7 | C=CC(=O)Nc1cccc(Oc2nc(Nc3cnn(C4CCN(C)C4)c3)nc3[nH]ccc23)c1 (stereo not drawn) [Example 34] | 14 | 100 to 1000 | < 10 | 170 | 4030 | – | < 10 | 10 to 100 | –
8 | C=CC(=O)Nc1cccc(Oc2nc(Nc3cnn(C)c3)nc3[nH]ccc23)c1 [Example 35] | – | 100 to 1000 | < 10 | – | – | – | < 10 | < 10 | –
9 | C=CC(=O)N1CC[C@@H](COc2nc(Nc3cnn(C)c3)nc3[nH]cc(Cl)c23)C1 [Example 64] | – | 10 to 100 | < 10 | – | – | – | < 10 | 10 to 100 | –
10 | C=CC(=O)N1C[C@H](COc2nc(Nc3cnn(CC)n3)nc3[nH]cc(Cl)c23)[C@@H](OC)C1 [Example 67] | 8 | – | – | 49 | > 10000 | 172 | – | – | 141
